One block for each compound: values may come before it.
Test system: 171881-019-R-J1-PDC tumor spheroid viability
Test: Anticancer human tumor 171881-019-R-J1-PDC patient-derived invasive breast carcinoma cell line growth inhibition [PI3K]
Details: spheroids with HUVEC and MSC; for IC50: curve of first compound; for viability, T/C: stronger effect = lower value
Summary of the method: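 Combination activity was assessed by viability in multicellular tumor spheroids carrying HUVEC and MSC components. Agents were tested with PI3K inhibitors from a Cmax-based top dose (or 10 microM) downward in half-log increments.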

[1] = second compound 0.0316 µM, first compound 0.00316 µM
[2] = second compound 0.0316 µM, first compound 0.01 µM
[3] = second compound 0.0316 µM, first compound 0.0316 µM
[4] = second compound 0.0316 µM, first compound 0.1 µM
[5] = second compound 0.1 µM, first compound 0.00316 µM
[6] = second compound 0.1 µM, first compound 0.01 µM
[7] = second compound 0.1 µM, first compound 0.0316 µM
[8] = second compound 0.1 µM, first compound 0.1 µM
[9] = second compound 0.316 µM, first compound 0.00316 µM
[10] = second compound 0.316 µM, first compound 0.01 µM
[11] = second compound 0.316 µM, first compound 0.0316 µM
[12] = second compound 0.316 µM, first compound 0.1 µM
[13] = second compound 1 µM, first compound 0.00316 µM
[14] = second compound 1 µM, first compound 0.01 µM
[15] = second compound 1 µM, first compound 0.0316 µM
[16] = second compound 1 µM, first compound 0.1 µM
[17] = second compound 3.16 µM, first compound 0.00316 µM
[18] = second compound 3.16 µM, first compound 0.01 µM
[19] = second compound 3.16 µM, first compound 0.0316 µM
[20] = second compound 3.16 µM, first compound 0.1 µM
[21] = second compound 10 µM, first compound 0.00316 µM
[22] = second compound 10 µM, first compound 0.01 µM
[23] = second compound 10 µM, first compound 0.0316 µM
[24] = second compound 10 µM, first compound 0.1 µM
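Also: spheroids exposed to compound for 7 days before viability read.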
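For viability, T/C in this document: 100% = DMSO vehicle-treated spheroids.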

IC50 (second compound 0.0316 µM): > 1000 nM
IC50 (second compound 0.1 µM): > 1000 nM
IC50 (second compound 0.316 µM): > 1000 nM
IC50 (second compound 1 µM): > 1000 nM
IC50 (second compound 3.16 µM): > 1000 nM
IC50 (second compound 10 µM): > 1000 nM
Structure (SMILES): CCN1CCN(Cc2ccc(Nc3ncc(F)c(-c4cc(F)c5nc(C)n(C(C)C)c5c4)n3)nc2)CC1 + CC(Nc1ncnc2nc[nH]c12)c1cc2cccc(Cl)c2c(=O)n1-c1ccccc1
viability, T/C [1]: 96.4%
viability, T/C [2]: 98.5%
viability, T/C [3]: 103%
viability, T/C [4]: 98%
viability, T/C (second compound 0.0316 µM, first compound 0.316 µM): 122%
viability, T/C (second compound 0.0316 µM, first compound 1 µM): 117%
viability, T/C [5]: 99%
viability, T/C [6]: 95.5%
viability, T/C [7]: 99.8%
viability, T/C [8]: 110%
viability, T/C (second compound 0.1 µM, first compound 0.316 µM): 113%
viability, T/C (second compound 0.1 µM, first compound 1 µM): 118%
viability, T/C [9]: 95.4%
viability, T/C [10]: 103%
viability, T/C [11]: 103%
viability, T/C [12]: 105%
viability, T/C (second compound 0.316 µM, first compound 0.316 µM): 111%
viability, T/C (second compound 0.316 µM, first compound 1 µM): 116%
viability, T/C [13]: 92.7%
viability, T/C [14]: 98.4%
viability, T/C [15]: 97.5%
viability, T/C [16]: 108%
viability, T/C (second compound 1 µM, first compound 0.316 µM): 114%
viability, T/C (second compound 1 µM, first compound 1 µM): 114%
viability, T/C [17]: 95.5%
viability, T/C [18]: 94.8%
viability, T/C [19]: 72.9%
viability, T/C [20]: 98.6%
viability, T/C (second compound 3.16 µM, first compound 0.316 µM): 104%
viability, T/C (second compound 3.16 µM, first compound 1 µM): 101%
viability, T/C [21]: 67.5%
viability, T/C [22]: 61%
viability, T/C [23]: 69.5%
viability, T/C [24]: 72.5%
viability, T/C (second compound 10 µM, first compound 0.316 µM): 80.8%
viability, T/C (second compound 10 µM, first compound 1 µM): 84.3%

IC50 (second compound 0.0316 µM): 6.6 nM
IC50 (second compound 0.1 µM): 4.2 nM
IC50 (second compound 0.316 µM): 0.378 nM
IC50 (second compound 1 µM): < 0.316 nM
IC50 (second compound 3.16 µM): < 0.316 nM
IC50 (second compound 10 µM): < 0.316 nM
Structure (SMILES): CC(C)n1nc(-c2ccc3oc(N)nc3c2)c2c(N)ncnc21 + Cc1nc(NC(=O)N2CCCC2C(N)=O)sc1-c1ccnc(C(C)(C)C(F)(F)F)c1
viability, T/C (second compound 0.0316 µM, first compound 0.000316 µM): 93.8%
viability, T/C (second compound 0.0316 µM, first compound 0.001 µM): 78%
viability, T/C [1]: 63.1%
viability, T/C [2]: 46.8%
viability, T/C [3]: 16.1%
viability, T/C [4]: 3.37%
viability, T/C (second compound 0.1 µM, first compound 0.000316 µM): 79.6%
viability, T/C (second compound 0.1 µM, first compound 0.001 µM): 74.2%
viability, T/C [5]: 52.7%
viability, T/C [6]: 35.6%
viability, T/C [7]: 13.1%
viability, T/C [8]: 4.36%
viability, T/C (second compound 0.316 µM, first compound 0.000316 µM): 52%
viability, T/C (second compound 0.316 µM, first compound 0.001 µM): 44%
viability, T/C [9]: 38%
viability, T/C [10]: 22.4%
viability, T/C [11]: 8.1%
viability, T/C [12]: 2.79%
viability, T/C (second compound 1 µM, first compound 0.000316 µM): 31.4%
viability, T/C (second compound 1 µM, first compound 0.001 µM): 26.7%
viability, T/C [13]: 18.5%
viability, T/C [14]: 10.9%
viability, T/C [15]: 4.74%
viability, T/C [16]: 2.58%
viability, T/C (second compound 3.16 µM, first compound 0.000316 µM): 11.9%
viability, T/C (second compound 3.16 µM, first compound 0.001 µM): 11.9%
viability, T/C [17]: 8.19%
viability, T/C [18]: 5.31%
viability, T/C [19]: 3.23%
viability, T/C [20]: 2.15%
viability, T/C (second compound 10 µM, first compound 0.000316 µM): 3.18%
viability, T/C (second compound 10 µM, first compound 0.001 µM): 3.44%
viability, T/C [21]: 2.64%
viability, T/C [22]: 2.7%
viability, T/C [23]: 2.05%
viability, T/C [24]: 1.46%

— PubChem BioAssay AID1963986 (Molecular Pharmacology Branch, DTP, NCI, 2024)
